Key:
[1] = Clinical observations of side effects of intravitreal triamcinolone; assay type: in vivo, human
Description: Intravitreal triamcinolone presents a manageable side effect profile. Of the several hundred patients treated through the Sydney Eye Hospital over the last three years, no case of endophthalmitis, retinal detachment or vitreous haemorrhage has been reported. The commonest side effect is a modest elevation of the intraocular pressure of around 5 mmHg. This has been controlled with glaucoma medication where necessary, although if the optic nerve is not compromised and the pressure is less than 25 mmHg it is often reasonable to observe without treatment. The pressure invariably returns to normal after the drug wears off, which is usually after approximately 6 months.

[2] = test system: choroidal neovascularisation (CNV); assay: Illustrative case: intravitreal steroid treatment for the prevention of neovascularisation in a patient at high risk; assay type: in vivo, human
Method: This case illustrates how intravitreal steroid treatment might be used to prevent CNV in a high risk eye.
A patient presents with recent loss of vision in their right eye. Retinal haemorrhages and exudation are seen in the right macula. […] This is treated on its merits, but the patient is already legally blind (visual acuity less than 6/60) and likely to remain so.
The patient is otherwise healthy and looks as if they might well live another ten or twenty years.
It is explained to the patient that it has been well shown that the risk of developing neovascularisation in their left eye is roughly 90% over the next five years. Should this occur, the chance of saving reading and driving vision with conventional treatments would be less than 25%. The patient is informed that, since the formation of new blood vessels appears in this disease to be linked to chronic, low grade inflammation inside the eye, we believe that an injection of steroid into the eye may reduce the risk of developing neovascularisation in their left eye. […] Serious side effects of the injection are rare. The patient returns in one week, having considered their options, and elects to receive the treatment.
The patient's left eye is anaesthetised and sterilised with topical medications. An injection into the vitreous of 4 mg of triamcinolone (0.1 mL of a 40 mg/mL solution) is performed. The patient is reviewed at 1 and 6 weeks after the injection, then at 3, 6 and 12 months. […] A second injection of triamcinolone is instilled, with the patients consent, and they are reviewed with the same frequency as after the first injection. Two years after the first injection the patient's visual acuity remains 6/9. Further treatments are deferred and the patient is reviewed every 6 months.

[3] = test system: choroidal neovascularisation in age-related macular degeneration; details: introduced into the vitreous; cited from earlier work
[4] = test system: choroidal neovascularisation (CNV); assay: Case report: prophylactic triamcinolone to the orbital floor at cataract surgery in a high risk eye; assay type: in vivo, human
Description: A patient in whom prophylactic treatment was used was a person. There was marked macula degeneration in both eyes. They underwent cataract surgery late in July 1995 and developed neovascularisation of the right macula within three weeks. They also had cataract in the left eye but surgery was deferred for fear of developing the same complication. In the left macula there were greater than 5 drusen, some of them larger than 500 μm, and coarse pigment clumping, all high risk features. The cataract in the left eye continued to advance. By August 1997 it was very dense, reducing the visual acuity to 6/24. In spite of the high risk of neovascularisation, they underwent surgery in October 1997. As a prophylactic measure to reduce the risk of subsequent CNV, they received 40 mg of triamcinolone to the orbital floor beneath the eye at the time of surgery. The visual acuity improved to 6/12. They progressed well until June 1998 when they developed left CNV. By this time the effect of the triamcinolone had worn off.

[5] = 12 months after intravitreal injection of 4 mg

With “9-fluoro-11,21-dihydroxy-16,17-[1-(methylethylidine)bis (oxy)]pregna-1,4-diene-3,20-dione [triamcinolone]” the “cataract in the treated eye” value ([1]; follow-up to 18 months) was “this has not been a problem”, the “elevation of the intraocular pressure (commonest side effect)” value ([1]; intravitreal) was “around 5 mmHg” and the “endophthalmitis, retinal detachment or vitreous haemorrhage” value ([1]; several hundred patients treated intravitreally over three years) was “no case”. The “complications of the procedure” value [2, 5] was “no complications of the procedure have ensued”, the evidence of neovascularisation [2, 5] was “without evidence clinically or angiographically of neovascularisation” and the visual acuity ([2]; 12 months after intravitreal injection of 4 mg, baseline 6/9) was 6/9. The visual acuity ([2]; two years after the first injection, second injection at 12 months) was 6/9, the exudation [3] was “control and resorbtion of exudation” and the “resident immune cell activity” value [3] was “modulates the resident immune cell activity”. The visual acuity [3] was “improved visual acuity”, the “formation of CNV after surgery” value ([4]; 40 mg to the orbital floor October 1997, left CNV developed June 1998) was “delayed the formation of CNV after surgery” and the “visual acuity after cataract surgery” value ([4]; person, left eye, 40 mg to the orbital floor at surgery, acuity 6/24 before surgery) was 6/12.

— US20050124594A1, “Method of treatment” (priority 1998, published 2005)
